Laboratory results published in patent US11492325B2, “Compounds as inhibitors of sodium channels” (Human BioMolecular Research Institute, priority 2016, dated 2022).
Where two headings read alike, the source gives them in different places.

Assays:
[1] = test system: normal human induced pluripotent stem cell (hiPSC) cardiomyocyte; details: for WT-Prolong. Dose: 'No AP' wraps to 'No AP Prolong.'; for WT-Cess. Dose / WT-EC50 (μM)-Prolong.: deuterated vs non-deuterated; for WT-EC50 (μM)-Prolong.: 'No AP' wraps to 'No AP prolongation'; for WT-Fold Prolongation: APD
[2] = test system: cardiomyocytes derived from hiPSCs from a LQTS3 patient; details: for LQT-Cess. Dose: deuterated vs non-deuterated; for action potential shortening compared to unlabeled compound: deuterium-labeled analogs
Human FMO3 = Human FMO3 (Homo sapiens, UniProt P31513); details: 15 μg enzyme/incubation; 30 mins, 37° C.; nmol metabolism/incubation
CYP3A4 = CYP3A4 (Homo sapiens, UniProt P08684); test: Metabolism with highly purified CYP3A4 (HPLC); details: 3 pmol enzyme/incubation, 30 mins, 37° C.; for Human CYP3A4 (nmol/incub): nmol metabolism/incubation
Human FMO1 = target: T1, Human FMO1 (Homo sapiens, UniProt Q01740); test: Metabolism with human FMO1 (nmol metabolism/incubation); details: 15 μg enzyme/incubation, 30 mins, 37° C.; for Human FMO1 (nmol/incub): nmol metabolism/incubation
T1 sequence (Q01740 1-532): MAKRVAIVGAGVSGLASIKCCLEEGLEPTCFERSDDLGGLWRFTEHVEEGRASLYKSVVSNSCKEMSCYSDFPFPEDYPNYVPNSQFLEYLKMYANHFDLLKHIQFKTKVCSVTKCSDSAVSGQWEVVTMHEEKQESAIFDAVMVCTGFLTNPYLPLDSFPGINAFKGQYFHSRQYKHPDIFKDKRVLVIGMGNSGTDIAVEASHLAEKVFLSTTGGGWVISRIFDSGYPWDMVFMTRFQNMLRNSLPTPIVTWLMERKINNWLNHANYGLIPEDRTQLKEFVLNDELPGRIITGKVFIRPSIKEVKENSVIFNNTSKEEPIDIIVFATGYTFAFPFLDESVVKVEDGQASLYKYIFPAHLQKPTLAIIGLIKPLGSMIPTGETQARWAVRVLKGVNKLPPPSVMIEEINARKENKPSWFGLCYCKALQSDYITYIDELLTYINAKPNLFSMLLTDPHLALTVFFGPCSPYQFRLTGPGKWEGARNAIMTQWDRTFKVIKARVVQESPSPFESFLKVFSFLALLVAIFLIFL

[3] = Metabolism in human hepatic S9; details: for % Metabolism Human S9: 0.5 mg of protein
[4] = Metabolism in rat hepatic S9; format: in vitro ADME; details: 0.5 mg of protein
Experimental: (§1) A typical incubation contained rat, mouse, dog or human liver microsomes (0.4-0.5 mg of protein), 100 mM potassium phosphate buffer (pH7.4), 50 μM test compound, an NADPH-generating system consisting of 0.5 mM NADP^+, 0.5 mM glucose-6-phosphate, 1 IU/mL glucose-6-phosphate dehydrogenase, 1 mg/mL diethylenetriaminepentaaceticacid (DETAPAC), and 3 mM MgCl2 in a final incubation volume of 0.25 mL. […] After centrifugation at 3000 rpm for 5 min, the organic fraction was collected, the solvent was removed with a stream of argon and the residue was reconstituted in 125 μL of MeOH and 125 μL H2O, mixed thoroughly, centrifuged at 13,000 rpm for 5 min and analyzed by high performance liquid chromatography. Samples were run on a Hitachi D-7000 HPLC system using a L-7100 analytical pump, L-7400 UV-Visible variable wavelength detector, and L-7600 automatic sample injector. […] Disappearance of the analyte was monitored over time. A plot of the area under the curve for the normalized analyte versus time afforded the half-life values and kapp.
(§2) Microsomes contain CYPs and FMO metabolic enzymes. S9 contains soluble enzymes (i.e., aldehyde oxidase, MAO, etc.).

[5] = Metabolism in dog hepatic S9; format: in vitro ADME; details: 0.5 mg of protein
Experimental: as §1, §2

[6] = Metabolism in mouse hepatic S9; details: for % Metabolism Mouse S9: 0.5 mg of protein
Experimental: as §1, §2

[7] = target: Nav1.5 sodium channel transfected into HEK293 cells (Homo sapiens, UniProt Q14524); test: Patch clamp electrophysiology, peak (INaP) and late (INaL) sodium current in transfected cells
Outline: (§3)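 Conventional whole-cell patch clamp was performed on HEK293 cells transfected with Nav1.5 and plated on 0.1% gelatin-coated dishes. Values were reported as IC50 ± STD.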

[8] = target: Nav1.5 sodium channel, peak current (INaP) (Homo sapiens, UniProt Q14524, form not given); test: in vitro; details: Peak Na+ (INaP) IC50
Outline: as §3

Male BALBc mice = details: mice, i.p.; for tolerability: 30-100 mg/kg, 24 hr
Excerpt: Male BALBc mice (20-22 g) were used throughout these studies. The animals were maintained in a temperature-controlled room with 12-hr periods of light and darkness and had continuous access to water and animal food. […] Groups contained 2-4 animals.

[9] = Solubility (water; 10:30:60% DMSO:PEG400:water vehicle); format: physicochemical
[10] = target: T2, hERG potassium channel (IKr) (Homo sapiens, UniProt Q12809)
[11] = target: T2, hERG potassium channel (IKr); test: Automated patch clamp, hERG (IKr) expressed in CHO cells; details: hERG (IKr) IC50, CHO cells
[12] = test system: cardiomyocytes derived from hiPSCs from a LQTS3 patient; test: cells; details: Homo sapiens, Cardiomyocyte, read-out: LQT-IC50 (uM)-Shortening
[13] = Metabolic stability in human liver microsomes; format: in vitro ADME; details: human, liver microsomes, pH 7.4, 50 μM, NADPH-generating system, 37° C.; read-out: Liver Microsomes t1/2 Human
Experimental: as §1

[14] = Metabolic stability in mouse liver microsomes; format: in vitro ADME; details: mouse, liver microsomes, pH 7.4; 50 μM, NADPH-generating system, 37° C.; read-out: Liver Microsomes t1/2 Mouse
Experimental: as §1

[15] = Metabolic stability in rat liver microsomes; format: in vitro ADME; details: rat, liver microsomes, pH 7.4; 50 μM, NADPH-generating system, 37° C.; read-out: Liver Microsomes t1/2 Rat
Experimental: as §1

[16] = 'No AP' wraps to 'No AP shortening'
[17] = ratio peak/late IC50, Example 2
[18] = 0.4 mg protein/incubation, 30 mins, 37° C.

T2 sequence (Q12809 whole entry): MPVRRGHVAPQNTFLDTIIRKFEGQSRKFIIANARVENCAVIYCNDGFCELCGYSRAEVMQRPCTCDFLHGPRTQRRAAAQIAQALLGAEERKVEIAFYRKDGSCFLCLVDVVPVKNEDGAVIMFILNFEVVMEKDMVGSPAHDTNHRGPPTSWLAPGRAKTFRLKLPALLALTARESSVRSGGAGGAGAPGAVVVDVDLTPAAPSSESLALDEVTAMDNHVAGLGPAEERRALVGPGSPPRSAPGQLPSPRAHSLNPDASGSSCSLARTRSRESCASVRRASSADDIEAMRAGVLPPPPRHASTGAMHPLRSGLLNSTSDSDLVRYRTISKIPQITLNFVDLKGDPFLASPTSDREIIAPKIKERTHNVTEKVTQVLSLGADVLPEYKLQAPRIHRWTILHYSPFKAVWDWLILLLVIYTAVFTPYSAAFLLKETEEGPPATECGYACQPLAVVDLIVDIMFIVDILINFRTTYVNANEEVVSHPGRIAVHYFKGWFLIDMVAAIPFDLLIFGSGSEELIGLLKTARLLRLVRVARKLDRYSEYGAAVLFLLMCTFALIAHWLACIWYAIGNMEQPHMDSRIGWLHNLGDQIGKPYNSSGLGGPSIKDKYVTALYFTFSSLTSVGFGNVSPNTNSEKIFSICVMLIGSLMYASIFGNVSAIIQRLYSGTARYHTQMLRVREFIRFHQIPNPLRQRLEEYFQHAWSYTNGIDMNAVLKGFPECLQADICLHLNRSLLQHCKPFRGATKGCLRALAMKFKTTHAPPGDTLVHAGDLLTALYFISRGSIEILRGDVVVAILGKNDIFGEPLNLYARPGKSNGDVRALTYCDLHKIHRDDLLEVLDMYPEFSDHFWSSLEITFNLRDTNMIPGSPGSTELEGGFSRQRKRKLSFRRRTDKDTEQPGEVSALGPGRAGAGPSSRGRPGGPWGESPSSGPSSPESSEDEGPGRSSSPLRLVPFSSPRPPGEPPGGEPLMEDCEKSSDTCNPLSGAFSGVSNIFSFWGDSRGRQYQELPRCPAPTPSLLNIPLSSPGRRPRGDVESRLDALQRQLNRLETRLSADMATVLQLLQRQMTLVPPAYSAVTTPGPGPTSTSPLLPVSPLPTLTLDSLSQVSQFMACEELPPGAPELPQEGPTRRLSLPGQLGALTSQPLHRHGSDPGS
Chain of CYP3A4 (P08684 whole entry): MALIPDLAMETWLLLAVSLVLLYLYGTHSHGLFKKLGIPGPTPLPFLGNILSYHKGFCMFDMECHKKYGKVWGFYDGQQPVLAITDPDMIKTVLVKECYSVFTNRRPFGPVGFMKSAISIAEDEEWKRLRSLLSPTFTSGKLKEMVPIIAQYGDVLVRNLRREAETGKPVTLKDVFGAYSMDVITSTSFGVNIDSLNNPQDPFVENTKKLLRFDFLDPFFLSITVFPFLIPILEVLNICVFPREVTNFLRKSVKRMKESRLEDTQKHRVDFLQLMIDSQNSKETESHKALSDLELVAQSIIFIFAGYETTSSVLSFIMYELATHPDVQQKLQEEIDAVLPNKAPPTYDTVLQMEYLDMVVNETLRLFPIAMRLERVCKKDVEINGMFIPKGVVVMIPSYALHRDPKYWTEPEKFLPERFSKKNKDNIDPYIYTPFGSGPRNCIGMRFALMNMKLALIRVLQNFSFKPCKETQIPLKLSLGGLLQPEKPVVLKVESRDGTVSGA
Chain of Human FMO3 (P31513 whole entry): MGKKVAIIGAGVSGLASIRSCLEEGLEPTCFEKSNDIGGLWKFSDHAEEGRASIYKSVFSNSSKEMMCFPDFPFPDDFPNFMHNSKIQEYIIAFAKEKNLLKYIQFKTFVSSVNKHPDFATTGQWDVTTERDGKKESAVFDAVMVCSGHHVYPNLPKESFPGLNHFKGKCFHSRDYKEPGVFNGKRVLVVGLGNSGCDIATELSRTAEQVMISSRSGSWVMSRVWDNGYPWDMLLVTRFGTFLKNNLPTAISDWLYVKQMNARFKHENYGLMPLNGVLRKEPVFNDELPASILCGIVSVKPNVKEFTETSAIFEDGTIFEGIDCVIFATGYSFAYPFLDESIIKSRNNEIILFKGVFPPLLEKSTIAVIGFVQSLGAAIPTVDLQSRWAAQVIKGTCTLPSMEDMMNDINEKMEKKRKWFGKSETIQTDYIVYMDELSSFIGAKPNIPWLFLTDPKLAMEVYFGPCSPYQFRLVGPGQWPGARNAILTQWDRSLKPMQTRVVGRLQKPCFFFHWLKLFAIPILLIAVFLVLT

Cl.[2H]C(N)(COc1ccccc1C(F)(F)F)c1ccccc1 (stereo not drawn) [Compound 104d]
WT-Prolong. Dose [1]: No AP
WT-Cess. Dose [1]: 22 µM
WT-EC50 (μM)-Prolong. [1]: No AP
LQT-EC50 (μM)-Shortening [2, 16]: shortens)
LQT-Fold Shortening [2, 16]: 1.395
LQT-Shortening Dose [2, 16]: 22 µM
LQT-Cess. Dose [2]: 66 µM
Human FMO3 (nmol/incub) (Human FMO3): 0.7 nmol/incub
Human CYP3A4 (nmol/incub) (CYP3A4): 0.3 nmol/incub
Human FMO1 (nmol/incub) (Human FMO1): 0.3 nmol/incub

Cc1ccccc1OCC(N)c1ccccc1 (stereo not drawn) [drawing 307]
% Metabolism Human S9 [3]: 7.0 ± 0.1%
% Metabolism Rat S9 [4]: 97.8 ± 19.5%
% Metabolism Dog S9 [5]: 98.0 ± 28.1%
% Metabolism Mouse S9 [6]: 34.6%

NC(COc1cc(C(F)(F)F)cc(C(F)(F)F)c1)c1ccccc1 (stereo not drawn) [drawing 305]
% Metabolism Human S9 [3]: 41.1 ± 28.9%
% Metabolism Rat S9 [4]: 2.1 ± 1.4%
% Metabolism Dog S9 [5]: 25.6 ± 17.9%
% Metabolism Mouse S9 [6]: 11.6 ± 3.0%

COCCNC(COc1cc(C)cc(C)c1)c1ccccc1.Cl (stereo not drawn) [Compound 69]
DNap/NaL ([7]; ratio peak IC50/late IC50): 45.3
DNap/NaL [7, 17]: 50.5
IC50 [8]: 38.3 µM
behavioral/toxic effects at 200 mg/kg (Male BALBc mice): slight lethargy
tolerability (Male BALBc mice): well-tolerated
solubility (in words) [9]: good solubility
WT-Fold Prolongation ([1]; normal hiPSC cardiomyocytes): None
Cessation of Beating ([1]; human, 5 min): 200 µM
WT-Prolongation Dose ([1]; normal hiPSC cardiomyocytes): None
LQT-IC50 (uM)-Shortening ([2]; APD shortening, LQT3 cardiomyocytes): None
LQT-Fold Shortening ([2]; LQT3 cardiomyocytes): None
LQT-Shortening Dose ([2]; LQT3 cardiomyocytes): None
LQT-Cessation Dose ([2]; human, 5 min): 200 µM
DNaP/Kr [10]: 7.5
IC50 [11]: 5.1 µM
IC50 ([11]; Example 2): 5.1 µM

Cc1cccc(C)c1OCC(N)c1ccccc1 (racemic) [Phenyl Mexiletine]
Human S-9, nmol metab./incub. [3, 18]: 1.2 nmol metab./incub.
Mouse S-9, nmol metab./incub. [6, 18]: 2.5 nmol metab./incub.
Human CYP3A4, nmol metab./incub. (CYP3A4): 2.3 nmol metab./incub.
Human FMO1, nmol metab./incub. (Human FMO1): 0.33 nmol metab./incub.

Cl.[2H]C(N)(COc1ccccc1C)c1ccccc1 (stereo not drawn) [Compound 104c]
Mouse liver S-9 (nmol/incub) ([6]; 0.4 mg protein/incubation, 30 mins, 37° C., nmol metabolism/incubation): 13.2 nmol/incub
Human FMO3 (nmol/incub) (Human FMO3): 1.3 nmol/incub
Human CYP3A4 (nmol/incub) (CYP3A4): 1.0 nmol/incub
Human FMO1 (nmol/incub) (Human FMO1): 1.4 nmol/incub

Cl.[2H]C(N)(COc1cc(C)cc(C)c1)c1ccccc1 (stereo not drawn) [Compound 104b]
WT-Prolong. Dose [1]: No AP
WT-Cess. Dose [1]: 22 µM
WT-EC50 (μM)-Prolong. [1]: No AP
LQT-Fold Shortening [2, 16]: 1.280
LQT-Shortening Dose [2, 16]: 2.5 µM
LQT-Cess. Dose [2]: 22 µM
action potential shortening compared to unlabeled compound [2]: equal to or greater action potential shortening
Human FMO3 (nmol/incub) (Human FMO3): 0.05 nmol/incub
Human CYP3A4 (nmol/incub) (CYP3A4): 0.3 nmol/incub
Human FMO1 (nmol/incub) (Human FMO1): 1.0 nmol/incub

Cc1ccncc1OCC(N)c1ccccc1.Cl (stereo not drawn) [Compound 88]
IC50 [7]: 1.04 µM
DNap/NaL [7, 17]: 87.4
IC50 [8]: 90.9 µM
behavioral/toxic effects at 200 mg/kg (Male BALBc mice): slight lethargy
tolerability (Male BALBc mice): well-tolerated
solubility (in words) [9]: good solubility
Cessation of Beating [1]: None
WT-Fold Prolongation ([1]; normal hiPSC cardiomyocytes): 1.52
LQT-Cessation Dose [2]: None
LQT-Fold Shortening ([2]; LQT3 cardiomyocytes): 1.287
DKr/NaL [10]: 10.7
DNaP/Kr [10]: 7.7
IC50 [12]: 12.8 µM
IC50 ([11]; Example 2): 11.2 µM

COCCNC(COc1ccccc1C(F)(F)F)c1ccccc1.Cl (stereo not drawn) [Compound 105]
IC50 [7]: 1.14 µM
DNap/NaL [7, 17]: 38.9
IC50 [8]: 44.3 µM
tolerability (Male BALBc mice): well-tolerated
solubility (in words) [9]: good solubility
DKr/NaL [10]: 18.3
DNaP/Kr [10]: 2.11
IC50 ([11]; Example 2): 20.9 µM

NC(COc1ccccc1C(F)(F)F)c1ccccc1 (stereo not drawn) [drawing 308]
% Metabolism Human S9 [3]: 28.0 ± 7.4%
% Metabolism Rat S9 [4]: 15.4 ± 10.5%
% Metabolism Dog S9 [5]: 51.0 ± 19.1%
% Metabolism Mouse S9 [6]: 55.0 ± 22.4%

Cl.[2H]C(N)(COc1cc(C(F)(F)F)cc(C(F)(F)F)c1)c1ccccc1 (stereo not drawn) [Compound 104a]
WT-Prolong. Dose [1]: No AP
WT-Cess. Dose [1]: 66 µM
WT-EC50 (μM)-Prolong. [1]: No AP
LQT-EC50 (μM)-Shortening [2, 16]: No AP
LQT-Fold Shortening [2, 16]: 1.274
LQT-Shortening Dose [2, 16]: 22 µM
LQT-Cess. Dose [2]: 133 µM
action potential shortening compared to unlabeled compound [2]: equal to or greater action potential shortening
Human FMO3 (nmol/incub) (Human FMO3): 0.6 nmol/incub
Human CYP3A4 (nmol/incub) (CYP3A4): 1.1 nmol/incub
Human FMO1 (nmol/incub) (Human FMO1): 0.8 nmol/incub

Cc1cc(C)cc(OCC(N)c2ccccc2)c1 (stereo not drawn) [drawing 306]
% Metabolism Human S9 [3]: 39.2 ± 8.4%
% Metabolism Rat S9 [4]: 45.0 ± 14.5%
% Metabolism Dog S9 [5]: 35.8 ± 7.0%
% Metabolism Mouse S9 [6]: 13.6 ± 5.0%

Cc1ccccc1OCC(N)c1ccccc1 (stereo not drawn) [drawing 303]
half-life at 50 μM [13]: 2.35 h
half-life at 50 μM [14]: 3.47 h
half-life at 50 μM [15]: 7.92 h
